# Like-named read-outs stand apart in the source and are kept apart here.
# How the values were obtained:
# [1] = tested on: pain reaction provoked in the rat through bending of an inflamed ankle joint; assay: Analgesic effect, pain reaction provoked through bending of an inflamed ankle joint (AgNO3 inflammation); conditions: for ED25: Rattus norvegicus, po, read-out: Analgesic effect ED25 (= dose which in 25% of the animals completely suppresses the pain reaction); for Therap. Quotient LD50/ED25: Table 5, LD50 mouse i.p. / ED25 rat oral, analgesic
# Protocol: The influence of the compounds which were to be tested on the pain reaction provoked in the rat through bending of an inflamed tarsal joint (AgNO3 inflammation) was determined as follows:
# In imitation of HOFFMEISTER et al [Arzneim.Forsch. […] The animals are kept at 24° C. and receive as food Altromin®R and water ad libitum. […] All the positively-reacting animals are concentrated in groups of 10 animals. The compounds which are to be tested are administered orally in a liquid volume of 20 ml/kg 1 hour before the AgNO3 application; the untreated control animals receive the corresponding amount of tap water.
# Within 5 hours after administration of the substance the number of reacting animals is ascertained at hourly intervals.
# As measure for the analgesic effect there serves the maximum % proportion of the protected animals within 5 hours after administration of the substance [referred to the number of reacting animals of the control group (=100%)]
# in vivo = conditions: mouse, ip
# [2] = tested on: carrageenin oedema of rat hind paw; assay: Inhibition of carrageenin oedema of rat hind paw; conditions: for ED40 / inhibition at 100 mg/kg: Rattus norvegicus; for ED40: po, read-out: Inhibition of carrageenin oedema of rat hind paw by 40% (=ED40) after single oral dose; for Therapeutic Quotient LD50/ED40: Table 2, LD50 mouse i.p. / ED40 rat oral; for inhibition at 100 mg/kg: read-out: oedema inhibition
# Protocol: The influence of the compounds which were to be tested on carrageenin oedema of rat hind paw was determined as follows:
# Female Sprague-Dawley rats (groups of, in each instance, 10 animals; weight of each animal 140-170 g) from which food (Altromin®R, water ad libitum) is withheld about 16 hours beforehand are each injected subplantarly in the right hind paw with 0.05 ml of a 1% strength carrageenin suspension 1 hour after oral administration of the compounds which are to be tested. The rats are kept at 24° C.
# The determination of the paw volume of each rat (in each case, 2-3 individual measurements) is effected plethysmometrically before and 2 and 4 hours after oedema provocation.
# As measure for the antiphlogistic effect there serves the average percentage oedema inhibition (i.e. the average from the measured values obtained 3 and 5 hours after administration of the substance).
# The determination of the paw volume is effected plethysmometrically. Measuring principle: the liquid volume displaced by the rat paw is registered digitally via an electromechanical pressure converter (Statham P 23 V, 0-200 mm Hg).
# The stated doses of the medicaments tested were administered in a liquid volume of 20 ml/kg.
# [3] = tested on: granulation tissue formation in the rat; conditions: Table 3; for Therapeutic Quotient LD50/ED20: LD50 mouse i.p. / ED20 rat oral
# Protocol: Test procedure for the investigation of the influence of the compounds which are to be tested on granulation tissue formation after cotton-wool implantation in the rat (so-called cotton pellet method):
# Closure of the skin cut is effected by means of clips.
# On seven consecutive days the compounds which are to be tested (as sodium salt in aqueous solution) or the corresponding amount (5 ml/kg/day) of tap water (=control group) are administered orally daily.
# On the eighth day the animals are killed, the cotton-wool granulomata are cautiously freed without cutting, i.e. preserving the fibrous capsule, dried (15 hours at 120° C.) and weighed. By deducting the weight component of the cotton-wool pellets the amount of newly formed granulation tissue is obtained.
# As measure for the anti-proliferative effect of a compound there serves the percentage lessening of the average granuloma dry weight of a treated group (=16 granulomata) compared to the control group (=100%).
# [4] = tested on: adjuvant arthritis in the rat (Mycobacterium butyricum); assay: Anti-arthritic effect (adjuvant arthritis); assay type: in vivo, rat (male Sprague-Dawley); conditions: Table 4, LD50 mouse i.p. / ED25 rat oral
# Protocol: In imitation of the method described by NEWBOULD and PERRINE et al. [NEWBOULD, B. B.; Brit. […] Pharmacodyn. […] Antiphlogistic agents inhibit this swelling reaction.
# Male Sprague-Dawley rats (150-190 g) are each injected intradermally into the tail root on day zero with 0.1 ml/animal of a 0.5% strength Myobact. butyrum/paraffin oil suspension. […] On the 17th day after administration of adjuvant, all positively-reacting animals (paw volume increase at least 30%) are selected and concentrated in groups of 10 animals with equal paw volume distribution.
# The compounds to be tested are now administered on the following 5 days, that is to say from the 17th to the 21st day after administration of adjuvant, once daily orally in 10 ml/kg of liquid.
# As measure for the anti-arthritic effect there serves the decrease of the paw swelling on the 21st day after the administration of adjuvant, referred in each case to the paw swelling of the control group (=100%); the paw volume is determined plethysmometrically.
# yeast fever of the rat = assay: Antipyretic effect, yeast fever of the rat; assay type: in vivo, rat (female Sprague-Dawley); conditions: read-out: Antipyretic effect ED0.75 (dose which lowers the yeast fever of the rat by 0.75° C.)
# Protocol: The antipyretic effect is determined from the influence of the compounds to be tested on the yeast fever of the rat.
# In female Sprague-Dawley rats (in each series of experiments, 30 rats in groups of 5 animals; animal weight 170-200 g) a hyperthermia is produced through subcutaneous injection (neck) of 20 ml/kg of a 20% strength aqueous brewer's yeast suspension (brewers' yeast "Heliosan"/Hefereformwerk Radolfzell). 24 hours after the yeast injection, the body temperature is measured rectally at hourly intervals.
# After a preliminary measurement the compounds which are to be tested are administered to the animals orally in a liquid volume of 5 ml/kg; a control group receives the corresponding amount of tap water. Food (Altromin®R, water ad libitum) was withheld from the rats 18 hours beforehand. The rats are kept at about 23° C.
# As measure for the antipyretic effect there serves the maximum lowering of temperature (with reference to the temperature of the preliminary measurement, i.e. immediately before administration of the substance) in the course of 4 hours. The body temperature is measured with a Iastomed H (Braun electronic).
# mouse = conditions: for Lethal effect LD50 after single intraperitoneal administration to the mouse: Table 3, single i.p.; for LD50 after a single administration mouse: Table 4, single i.p.; for Toxicity after single intraperitoneal administration to the mouse LD50: Table 5, single i.p.; for Toxicity after single intraperitoneal administration in the mouse LD50: Table 6, single i.p.
Structure (SMILES),ED25 [1] [mg/kg],Therap. Quotient LD50/ED25 [1],LD50 (in vivo) [mg/kg],ED40 [2] [mg/kg],Therapeutic Quotient LD50/ED40 [2],Therapeutic Quotient LD50/ED20 [3],Inhibition of granulation tissue formation after subcutaneous cotton-wool implantation by 20% (=ED20) in the rat after 7-day oral administration [3],Therapeutic Quotient LD50/ED25 [4],"ED (0.75 degC) (yeast fever of the rat; Table 6, rat, oral) [mg/kg]",Lethal effect LD50 after single intraperitoneal administration to the mouse (mouse) [mg/kg i.p.],LD50 after a single administration mouse (mouse) [mg/kg i.p.],Toxicity after single intraperitoneal administration to the mouse LD50 (mouse) [mg/kg i.p.],Toxicity after single intraperitoneal administration in the mouse LD50 (mouse) [mg/kg i.p.],ED (0.75 degC) (yeast fever of the rat; po) [mg/kg],inhibition at 100 mg/kg [2] [%]
CC(C(=O)[O-])c1cc(Cl)c(-n2cccn2)cc1Cl.[Na+] (stereo not drawn),2.5,420,1050,–,–,–,–,–,–,–,–,–,–,–,–
"CC(C(=O)O)c1ccc(-n2cc(Cl)cn2)c(Cl)c1 (stereo not drawn) [I, 2-[3-chloro-4-(4-chloropyrazol-1-yl)phenyl]-propionic acid]",0.4,813,325,5,65,108.3,3 mg/kg/die,1625,3.5,325,325,325,325,–,–
"O=C(O)Cc1ccc(-n2cc(Cl)cn2)cc1 [II, 4-(4-chloropyrazol-1-yl)phenylacetic acid]",–,–,460,8,58,–,–,–,–,–,–,–,–,–,–
"O=C(O)Cc1ccc(-n2cc(Br)cn2)cc1 [III, 4-(4-bromopyrazol-1-yl)phenylacetic acid]",1.2,458,550,4 to 5,122,–,–,–,20,–,–,550,550,–,–
"O=C(O)Cc1ccc(-n2cc(Cl)cn2)c(Cl)c1 [IV, 3-chloro-4-(4-chloropyrazol-1-yl)phenylacetic acid]",2.5,184,460,2,230,23.0,20 mg/kg/die,657,–,460,460,460,–,–,–
"CCCCC1C(=O)N(c2ccccc2)N(c2ccccc2)C1=O [IX, phenylbutazone, reference compound]",2,–,–,40,–,–,100 mg/kg/die,–,15,–,–,–,–,–,–
"CC(C(=O)O)c1ccc(-n2cc(Br)cn2)c(Cl)c1 (stereo not drawn) [V, 2-[3-chloro-4-(4-bromopyrazol-1-yl)phenyl] acid]",0.8,406,325,2,163,~ 32.5,~ 10 mg/kg/die,1625,5,–,–,–,–,–,–
"CC(C(=O)O)c1cc(Cl)c(-n2cc(Br)cn2)cc1Cl (stereo not drawn) [VII, 2-[2,5-dichloro-4-(4-bromopyrazol-1-yl)phenyl]propionic acid]",1.2,238,285,–,–,–,–,–,–,–,–,–,–,–,–
"O=C(O)Cc1ccc(-n2cccn2)cc1 [VIII, 4-(pyrazol-1-yl)phenylacetic acid]",–,–,1200,8,150,–,–,–,32,–,–,–,1200,–,–
"COc1ccc2c(c1)c(CC(=O)O)c(C)n2C(=O)c1ccc(Cl)cc1 [X, indomethacin, reference compound]",0.3,150,45,4,11,12.8,3-5 mg/kg/die,450,–,45,45,45,45,2.5,–
"Cn1nc(-c2ccc(CC(=O)O)cc2)cc1-c1ccccc1 [XI, 4-(1-methyl-5-phenylpyrazol-3-yl)phenylacetic acid, reference compound]",–,–,430,> 100,< 4,–,–,–,–,–,–,–,–,–,25
"O=C(O)Cc1ccc(-c2cc(-c3ccccc3)n(-c3ccccc3)n2)cc1 [XII, 4-(1,5-diphenyl-pyrazol-3-yl)phenylacetic acid, reference compound]",–,–,200,63,3,–,–,–,–,–,–,–,–,–,–
"CN1N=C(c2ccc(CC(=O)O)cc2)CC1c1ccccc1 (stereo not drawn) [XIII, 4-(1-methyl-5-phenyl-2-pyrazoline-3-yl)phenylacetic acid, reference compound]",–,–,–,> 100,–,–,–,–,–,–,–,–,–,–,25

# From patent US4239901A, “Pyrazol-1-ylphenylacetic acids” (Byk Gulden Lomberg Chemische Fabrik GmbH, priority 1976, dated 1980)
